From publication PMC12613110, “Anti-Trypanosoma cruzi Effects of Sesquiterpenoids from Branches of Drimys brasiliensis (Winteraceae)” (ACS Omega, 2025)

system: not listed separately; experiment: Mammalian cytotoxicity, MTT assay (48 h); type: cell-based; conditions: mouse, NCTC clone L929 cells
Protocol: (§1) The trypomastigote forms of T. cruzi (Y strain) were maintained in culture using Rhesus monkey kidney cells (LLC-MK2, ATCC CCL-7). These cells were cultured in RPMI-1640 medium supplemented with 2% fetal bovine serum (FBS) and incubated at 37 °C in a humidified atmosphere containing 5% CO2. Mouse fibroblast cells (NCTC clone L929, ATCC) and LLC-MK2 cells were similarly maintained in RPMI-1640 medium supplemented with 10% FBS under identical incubation conditions (37 °C, 5% CO2). Peritoneal macrophages were isolated from BALB/c mice by peritoneal lavage using RPMI-1640 medium supplemented with 10% FBS, followed by incubation at 37 °C in a 5% CO2 humidified atmosphere. In addition, the human monocytic cell line THP-1 (ATCC TIB-202) was cultured in RPMI-1640 medium supplemented with 20% FBS and […] glutamine, and maintained at 37 °C in a humidified 5% CO2 environment.
The cytotoxicity of compounds 1–6 was assessed using NCTC (clone L929) cell line. NCTC cells (6 × 10^4 cells/well) were seeded into 96-well plates and treated with serial dilutions of the test compounds prepared in RPMI-1640 medium supplemented with 10% fetal bovine serum (FBS). Following a 48-h incubation at 37 °C in a humidified atmosphere with 5% CO2, cell viability was determined using the MTT colorimetric assay. The 50% cytotoxic concentration (CC50) was calculated based on absorbance measurements at 570 nm using a FilterMax F5 microplate reader (Molecular Devices).
(§2) The CC50 and EC50 values were obtained from sigmoid dose–response curves using Graph-Pad Prims 6.0 software. All samples were tested in triplicate.

SMILES	CC50 at 48 h
C=C1[C@@H](C)CC[C@]2(C)[C@@H](C=O)C(C=O)=CC[C@@H]12 [Compound 6, 9-deoxymuzigadial]	> 200 µM

same assay, conditions: mouse, NCTC clone L929 fibroblast cells

SMILES	CC50 at 48 h
CC(C)=CCC[C@@H](C)C1=CC(=O)[C@@](C)(O)CC1 (relative stereo) [Compound 1, rel-(3S,7R)-3-hydroxy-bisabola-1(6),10-dien-2-one]	> 200 µM
CC(C)=CCC[C@@H](C)C1=C[C@H](O)[C@@](C)(O)CC1 (relative stereo) [Compound 2, rel-(2S,3S,7R)-bisabola-1(6),10-diene-2,3-diol]	> 200 µM
CC(C)=CCC[C@@H](C)[C@]12C=C[C@](C)(CC1)OO2 (relative stereo) [Compound 3, rel-(3S,6R,7R)-3,6-epidioxy-1,10-bisaboladiene]	> 200 µM
CC(C)=CCC[C@@H](C)c1ccc(C)cc1 [Compound 4, α-curcumene]	> 200 µM
CC1(C)CCC[C@]2(C)[C@@H](C=O)C(C=O)=CC[C@@H]12 [Compound 5, polygodial]	> 200 µM
O=C(Cn1ccnc1[N+](=O)[O-])NCc1ccccc1 [benznidazole, reference compound]	> 200 µM

system: T. cruzi trypomastigotes (Y strain); experiment: Anti-T. cruzi activity against trypomastigote forms (resazurin reduction assay, 24 h); type: cell-based; conditions: Trypanosoma cruzi, ± SD
Protocol: as §1
Compounds 1–6 were initially dissolved in DMSO and subsequently diluted in RPMI-1640 medium to the desired concentrations before being dispensed into 96-well microplates. T. cruzi trypomastigotes were then added at a density of 1 × 10^6 parasites per well. The plates were incubated for 24 h at 37 °C in a humidified atmosphere containing 5% CO2. Following incubation, the 50% effective concentration (EC50) was determined using the resazurin reduction assay. Absorbance readings were acquired at 570 nm using a microplate spectrophotometer (FilterMax F5). Untreated parasites served as the negative control, while benznidazole, a standard reference drug, was used as the positive control.
as §2

EC50	SMILES
38.5 ± 2.7 µM	CC(C)=CCC[C@@H](C)C1=CC(=O)[C@@](C)(O)CC1 (relative stereo) [Compound 1, rel-(3S,7R)-3-hydroxy-bisabola-1(6),10-dien-2-one]
88.3 ± 6.5 µM	CC(C)=CCC[C@@H](C)C1=C[C@H](O)[C@@](C)(O)CC1 (relative stereo) [Compound 2, rel-(2S,3S,7R)-bisabola-1(6),10-diene-2,3-diol]
65.5 ± 5.4 µM	CC(C)=CCC[C@@H](C)[C@]12C=C[C@](C)(CC1)OO2 (relative stereo) [Compound 3, rel-(3S,6R,7R)-3,6-epidioxy-1,10-bisaboladiene]
20.5 ± 1.6 µM	CC(C)=CCC[C@@H](C)c1ccc(C)cc1 [Compound 4, α-curcumene]
3.8 ± 3.1 µM	CC1(C)CCC[C@]2(C)[C@@H](C=O)C(C=O)=CC[C@@H]12 [Compound 5, polygodial]
17.4 ± 1.8 µM	O=C(Cn1ccnc1[N+](=O)[O-])NCc1ccccc1 [benznidazole, reference compound]

SMILES	EC50
C=C1[C@@H](C)CC[C@]2(C)[C@@H](C=O)C(C=O)=CC[C@@H]12 [Compound 6, 9-deoxymuzigadial]	5.9 ± 0.9 µM

system: Leishmania infantum; experiment: not given; design: method as in previous study by our group; conditions: after a short incubation period; ref previous study by our group; cited from earlier work

SMILES	ultrastructural damage to Leishmania
CC1(C)CCC[C@]2(C)[C@@H](C=O)C(C=O)=CC[C@@H]12 [Compound 5, polygodial]	intense mitochondrial swelling

system: intracellular amastigote forms of T. cruzi; experiment: Activity against intracellular amastigote forms of T. cruzi in infected peritoneal macrophages (48 h); type: cell-based; conditions: Trypanosoma cruzi, Peritoneal macrophage, intracellular amastigotes in peritoneal macrophages, ± SD, NA: nonactive
Protocol: as §1
The antiparasitic activity of compounds 1–6 against the intracellular amastigote forms of T. cruzi was assessed using an in vitro infection model with peritoneal macrophages. Macrophages were seeded in 16-well plates at a density of 1 × 10^5 cells per well and incubated at 37 °C in a humidified atmosphere containing 5% CO2 for 24 h to promote adherence. Cells were then infected with trypomastigotes for 2 h under the same conditions to allow parasite internalization. Following infection, noninternalized parasites were removed by washing with RPMI-1640 medium. The infected macrophages were subsequently treated with serial dilutions of compounds 1–6 (150.0–1.6 μM) and incubated for an additional 48 h at 37 °C in 5% CO2 to evaluate their antitrypanosomal efficacy. ,
as §2

SMILES	EC50
CC(C)=CCC[C@@H](C)C1=CC(=O)[C@@](C)(O)CC1 (relative stereo) [Compound 1, rel-(3S,7R)-3-hydroxy-bisabola-1(6),10-dien-2-one]	6.7 ± 3.8 µM
CC(C)=CCC[C@@H](C)C1=C[C@H](O)[C@@](C)(O)CC1 (relative stereo) [Compound 2, rel-(2S,3S,7R)-bisabola-1(6),10-diene-2,3-diol]	24.2 ± 4.4 µM
CC(C)=CCC[C@@H](C)c1ccc(C)cc1 [Compound 4, α-curcumene]	4.9 ± 0.1 µM
CC1(C)CCC[C@]2(C)[C@@H](C=O)C(C=O)=CC[C@@H]12 [Compound 5, polygodial]	3.5 ± 0.2 µM
C=C1[C@@H](C)CC[C@]2(C)[C@@H](C=O)C(C=O)=CC[C@@H]12 [Compound 6, 9-deoxymuzigadial]	3.1 ± 0.1 µM
O=C(Cn1ccnc1[N+](=O)[O-])NCc1ccccc1 [benznidazole, reference compound]	5.5 ± 2.2 µM
